# Assay results reported in paper PMC4585259 (Frontiers in Pharmacology, 2015).
# Where two headings read alike, the source gives them in different places.
# Biological target: T1, rNav1.2 sodium channels (Rattus norvegicus, UniProt P04775)
# T1 construct: host or cells: HEK-293
# Assay: QPatch automated patch clamp, inhibition of sodium currents evoked by 5 Hz trains at three extracellular pH values
# Type: cell-based
# Conditions: for class of pH-dependence pattern (cluster analysis): Ward's method on 18 variables of affinity, reversibility, onset; for τoffset / τonset: concentration (lidocaine 300 μM, memantine 30 μM)
# Procedure: HEK-293 cells stably expressing rNav1.2 sodium channels were obtained from NeuroSearch (Ballerup, Denmark). The cells were grown in Dulbecco's modified Eagle medium supplemented with 10% FBS. Prior to use, the cells were trypsinized and subsequently kept in suspension in the QPatch cell storage facility in CHO-S- SFM-II medium.
# Composition of the extracellular solution was: (in mM): 140 NaCl, 3 KCl, 1 CaCl2 1 MgCl2, 0.1 CdCl2, 20 TEA-Cl, 5 HEPES, adjusted to pH 7.3, Osmolality: 320 mOsm. […] Drugs were synthesized in Gedeon Richter Plc. […] The full list of drugs, with their three-letter codes, concentration, as well as their main therapeutic indication and main mechanism of action are shown in Table 1. […] The choice of concentrations used in this study may seem unusually high.
# Data were sampled at a frequency of 25 kHz and filtered at 5 kHz. Junction potential was calculated to be −11 mV and was corrected for. […] Cells having membrane resistance < 500 MOhm, series resistance > 9 MOhm, or capacitance > 22 pF were excluded from analysis. The experimental protocol was also identical to the one used in our previous study: sodium channels were activated by 5 Hz trains of 5 depolarizations (−90 to −10 mV) repeated in every 20 s. In this study, however, the same control–drug-application–washout sequence was repeated four times: at neutral, acidic, alkalic, and again neutral pH. The peak amplitudes of sodium currents throughout the whole experiment are shown plotted against time in Figure 1 and Supplementary Figure 1.
# Initial analysis, including subtraction of leak and capacitive artifacts, as well as peak detection were done in the QPatch software. […] All experiments were normalized to the amplitude of the current evoked by the first depolarization of the last train under control conditions. […] For all four drug applications in an experiment, apparent affinity, onset and offset time constants as well as reversibility values were calculated. […] (This method is equivalent to applying the Lineweaver-Burk plot method using a single concentration.) Reversibility values were calculated from control (c), inhibited (i), and wash-out (w) amplitudes as follows: Reversibility = (w-i)/(c-i). Reversibility values should not be regarded as experimental platform-independent properties of compounds. […] However, reversibility values are a valuable source of information regarding physicochemical differences between individual drugs, or between effects of the same drug under different extracellular pH conditions. Onset and offset time constants were determined by single exponential fitting to individual experiments. For neutral pH numerical data were given as the average of the data from the first and the last drug applications. Thin black lines on Figure 1 and Supplemental Figure 1 show the average of five fitted exponentials, (not the exponential fitted to the averaged normalized amplitudes). The numerical values of apparent affinity, onset and offset time constants and reversibility are shown in Table 2, and their relative position is illustrated in Figure 2. Affinity and time constant values were logarithmically transformed for statistics, therefore we show their geometric mean. For recovery data no transformation was done, and we show arithmetic mean values. Significance values were calculated using paired, two-tailed Student's t-test based on five pairs of apparent affinity (log transform), time constant (log transform), or reversibility values obtained from five individual experiments. Because of the large number of comparisons in this study, we accepted p < 0.01 as significant. Cluster analysis was done using Ward's minimum variance method, with Euclidean distance measure. Data were normalized by subtracting the mean (after logarithmic transformation in the case of apparent affinity and time constants), and dividing by the standard deviation.
# [1] = pH 6.0, single concentration (lidocaine 300 μM, memantine 30 μM), geometric mean of 5, read-out: apparent affinity
# [2] = pH 7.3, single concentration (lidocaine 300 μM, memantine 30 μM), geometric mean of 5, read-out: apparent affinity
# [3] = pH 8.6, single concentration (lidocaine 300 μM, memantine 30 μM), geometric mean of 5, read-out: apparent affinity
# T1 sequence (P04775 whole entry): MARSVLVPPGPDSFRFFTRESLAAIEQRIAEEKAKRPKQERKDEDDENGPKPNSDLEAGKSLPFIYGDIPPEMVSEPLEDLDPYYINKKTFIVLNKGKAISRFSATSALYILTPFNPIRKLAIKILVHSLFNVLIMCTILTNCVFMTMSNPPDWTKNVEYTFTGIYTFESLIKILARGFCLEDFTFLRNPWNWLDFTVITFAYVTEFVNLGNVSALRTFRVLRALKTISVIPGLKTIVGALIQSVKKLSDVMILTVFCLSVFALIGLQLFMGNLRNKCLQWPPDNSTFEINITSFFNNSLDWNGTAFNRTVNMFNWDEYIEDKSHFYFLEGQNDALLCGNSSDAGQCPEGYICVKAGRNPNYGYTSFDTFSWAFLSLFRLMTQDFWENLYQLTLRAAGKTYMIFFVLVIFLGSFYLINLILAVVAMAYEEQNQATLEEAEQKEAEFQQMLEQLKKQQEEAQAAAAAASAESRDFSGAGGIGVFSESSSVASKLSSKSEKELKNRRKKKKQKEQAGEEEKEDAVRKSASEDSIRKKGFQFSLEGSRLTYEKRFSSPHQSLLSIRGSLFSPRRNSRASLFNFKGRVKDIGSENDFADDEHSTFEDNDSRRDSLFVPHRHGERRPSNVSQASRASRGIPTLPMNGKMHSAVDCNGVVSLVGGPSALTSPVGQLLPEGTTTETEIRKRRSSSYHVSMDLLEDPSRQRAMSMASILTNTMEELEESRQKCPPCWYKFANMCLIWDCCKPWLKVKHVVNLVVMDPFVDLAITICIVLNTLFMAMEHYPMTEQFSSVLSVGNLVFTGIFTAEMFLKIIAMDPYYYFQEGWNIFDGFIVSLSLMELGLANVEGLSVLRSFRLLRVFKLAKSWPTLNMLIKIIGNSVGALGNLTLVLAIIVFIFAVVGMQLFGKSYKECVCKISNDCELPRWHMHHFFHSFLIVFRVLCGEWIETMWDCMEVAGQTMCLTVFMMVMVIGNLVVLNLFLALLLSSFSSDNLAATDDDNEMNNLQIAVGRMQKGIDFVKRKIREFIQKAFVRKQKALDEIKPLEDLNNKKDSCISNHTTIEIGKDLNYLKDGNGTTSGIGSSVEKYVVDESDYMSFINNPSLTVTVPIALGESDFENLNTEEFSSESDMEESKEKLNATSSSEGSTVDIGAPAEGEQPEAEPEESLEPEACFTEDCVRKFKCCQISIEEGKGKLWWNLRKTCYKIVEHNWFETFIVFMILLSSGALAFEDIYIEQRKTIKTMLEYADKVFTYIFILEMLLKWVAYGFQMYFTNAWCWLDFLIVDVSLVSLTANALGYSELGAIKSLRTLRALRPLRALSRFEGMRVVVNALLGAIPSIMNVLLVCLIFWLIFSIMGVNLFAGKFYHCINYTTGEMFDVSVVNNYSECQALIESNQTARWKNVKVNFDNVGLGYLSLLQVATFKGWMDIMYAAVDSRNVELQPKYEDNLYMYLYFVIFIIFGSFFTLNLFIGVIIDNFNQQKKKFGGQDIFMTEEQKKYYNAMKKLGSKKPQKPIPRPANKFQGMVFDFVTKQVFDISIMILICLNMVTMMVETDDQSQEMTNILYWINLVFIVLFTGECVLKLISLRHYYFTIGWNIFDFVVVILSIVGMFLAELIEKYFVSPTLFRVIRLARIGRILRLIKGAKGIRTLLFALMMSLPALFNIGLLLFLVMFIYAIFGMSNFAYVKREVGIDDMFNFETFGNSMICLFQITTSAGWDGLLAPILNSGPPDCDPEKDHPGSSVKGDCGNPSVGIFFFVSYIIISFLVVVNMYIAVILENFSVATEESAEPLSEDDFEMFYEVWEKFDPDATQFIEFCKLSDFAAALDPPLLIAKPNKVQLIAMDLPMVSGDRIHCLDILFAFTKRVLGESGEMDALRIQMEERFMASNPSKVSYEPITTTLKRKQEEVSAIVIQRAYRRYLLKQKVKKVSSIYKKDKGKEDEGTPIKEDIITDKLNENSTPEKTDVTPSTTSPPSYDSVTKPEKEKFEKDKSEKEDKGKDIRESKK
structure (smiles),measurement,setting,value
CNCCC(Oc1ccccc1OC)c1ccccc1 (stereo not shown) [nisoxetine],Kd,"Apparent Affinity, pH=6.0, cc 100 mM",210 µM
same,Kd,"Apparent Affinity, pH=7.3, cc 100 mM",80.1 µM
same,Kd,"Apparent Affinity, pH=8.6, cc 100 mM",28.6 µM
same,class of pH-dependence pattern (cluster analysis),,Class F
same,Kd,"apparent affinity, pH 6.0, single concentration (lidocaine 300 μM, memantine 30 μM), geometric mean of 5",210 µM
same,Kd,"apparent affinity, pH 7.3, single concentration (lidocaine 300 μM, memantine 30 μM), geometric mean of 5",80.1 µM
same,Kd,"apparent affinity, pH 8.6, single concentration (lidocaine 300 μM, memantine 30 μM), geometric mean of 5",28.6 µM
same,Ratio Reversibility,"pH 6.0/7.3, cc 100 mM",1.076
same,Ratio Tau Offset,"pH 6.0/7.3, cc 100 mM",0.636
same,Ratio Tau Onset,"pH 6.0/7.3, cc 100 mM",0.550
same,log Ratio App Aff,"pH 6.0/7.3, cc 100 mM",0.419
same,Ratio Reversibility,"pH 6.0/8.6, cc 100 mM",1.973
same,Ratio Tau Offset,"pH 6.0/8.6, cc 100 mM",0.947
same,Ratio Tau Onset,"pH 6.0/8.6, cc 100 mM",1.245
same,log Ratio App Aff,"pH 6.0/8.6, cc 100 mM",0.867
same,τoffset,pH 6.0,19.60 s
same,τonset,pH 6.0,13.20 s
same,Ratio Reversibility,"pH 7.3/8.6, cc 100 mM",1.833
same,Ratio Tau Offset,"pH 7.3/8.6, cc 100 mM",1.489
same,Ratio Tau Onset,"pH 7.3/8.6, cc 100 mM",2.263
same,log Ratio App Aff,"pH 7.3/8.6, cc 100 mM",0.448
same,τoffset,pH 7.3,30.82 s
same,τonset,pH 7.3,23.99 s
same,τoffset,pH 8.6,20.70 s
same,τonset,pH 8.6,10.60 s
same,Reversibility,"pH=6.0, cc 100 mM",0.75
same,Reversibility,"pH=7.3, cc 100 mM",0.69
same,Reversibility,"pH=8.6, cc 100 mM",0.38
Fc1ccc([C@@H]2CCNC[C@H]2COc2ccc3c(c2)OCO3)cc1 [paroxetine],class of pH-dependence pattern (cluster analysis),,Class C
same,effect of alkalic pH on onset/offset kinetics,in words,acceleration of onset
same,Ratio Reversibility,"pH 6.0/7.3, cc 30 mM",1.674
same,Ratio Tau Offset,"pH 6.0/7.3, cc 30 mM",0.896
same,Ratio Tau Onset,"pH 6.0/7.3, cc 30 mM",1.411
same,log Ratio App Aff,"pH 6.0/7.3, cc 30 mM",0.413
same,Ratio Reversibility,"pH 6.0/8.6, cc 30 mM",6.394
same,Ratio Tau Offset,"pH 6.0/8.6, cc 30 mM",1.191
same,Ratio Tau Onset,"pH 6.0/8.6, cc 30 mM",2.000
same,log Ratio App Aff,"pH 6.0/8.6, cc 30 mM",0.762
same,τoffset,pH 6.0,33.83 s
same,τonset,pH 6.0,47.12 s
same,Kd,[1],49.6 µM
same,Ratio Reversibility,"pH 7.3/8.6, cc 30 mM",3.820
same,Ratio Tau Offset,"pH 7.3/8.6, cc 30 mM",1.329
same,Ratio Tau Onset,"pH 7.3/8.6, cc 30 mM",1.418
same,log Ratio App Aff,"pH 7.3/8.6, cc 30 mM",0.349
same,τoffset,pH 7.3,37.75 s
same,τonset,pH 7.3,33.39 s
same,Kd,[2],19.2 µM
same,τoffset,pH 8.6,28.40 s
same,τonset,pH 8.6,23.55 s
same,Kd,[3],8.57 µM
same,Reversibility,"pH=6.0, cc 30 mM",0.65
same,Kd,"pH=6.0, cc 30 mM, read-out: Apparent Affinity",49.6 µM
same,Reversibility,"pH=7.3, cc 30 mM",0.39
same,Kd,"pH=7.3, cc 30 mM, read-out: Apparent Affinity",19.2 µM
same,Reversibility,"pH=8.6, cc 30 mM",0.10
same,Kd,"pH=8.6, cc 30 mM, read-out: Apparent Affinity",8.57 µM
O=C1NC(=O)C(c2ccccc2)(c2ccccc2)N1 [phenytoin],class of pH-dependence pattern (cluster analysis),,Class A
same,Ratio Reversibility,"pH 6.0/7.3, cc 300 mM",1.014
same,Ratio Tau Offset,"pH 6.0/7.3, cc 300 mM",1.227
same,Ratio Tau Onset,"pH 6.0/7.3, cc 300 mM",0.985
same,log Ratio App Aff,"pH 6.0/7.3, cc 300 mM",0.026
same,Ratio Reversibility,"pH 6.0/8.6, cc 300 mM",1.313
same,Ratio Tau Offset,"pH 6.0/8.6, cc 300 mM",0.993
same,Ratio Tau Onset,"pH 6.0/8.6, cc 300 mM",0.650
same,log Ratio App Aff,"pH 6.0/8.6, cc 300 mM",0.109
same,τoffset,pH 6.0,21.26 s
same,τonset,pH 6.0,13.00 s
same,Kd,[1],830 µM
same,Ratio Reversibility,"pH 7.3/8.6, cc 300 mM",1.295
same,Ratio Tau Offset,"pH 7.3/8.6, cc 300 mM",0.809
same,Ratio Tau Onset,"pH 7.3/8.6, cc 300 mM",0.660
same,log Ratio App Aff,"pH 7.3/8.6, cc 300 mM",0.083
same,τoffset,pH 7.3,17.32 s
same,τonset,pH 7.3,13.20 s
same,Kd,[2],781 µM
same,τoffset,pH 8.6,21.40 s
same,τonset,pH 8.6,20.00 s
same,Kd,[3],646 µM
same,Reversibility,"pH=6.0, cc 300 mM",0.83
same,Kd,"pH=6.0, cc 300 mM, read-out: Apparent Affinity",830 µM
same,Reversibility,"pH=7.3, cc 300 mM",0.82
same,Kd,"pH=7.3, cc 300 mM, read-out: Apparent Affinity",781 µM
same,Reversibility,"pH=8.6, cc 300 mM",0.63
same,Kd,"pH=8.6, cc 300 mM, read-out: Apparent Affinity",646 µM
